Test results published in article PMC11189555, “Aryl amino acetamides prevent Plasmodium falciparum ring development via targeting the lipid-transfer protein PfSTART1” (Nature Communications, 2024).
pEC50: −log10 of the molar value. Read-outs that look alike come from different tables or passages of the source.

Test system: PopE-F10 M-833 resistant clone (PfSTART1 N330K)
Assay: Growth inhibition assay (72 h, LDH activity)
Type: cell-based, Plasmodium falciparum
How it was run: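 Synchronised ring-stage 3D7-derived clones (0.3-0.6% parasitemia, 2% haematocrit) grown 72 h in compound serial dilutions, some with 0, 0.25 or 2.5 mM glucosamine. Growth read as LDH activity after freeze-thaw (Malstat/NBT, A650), normalised to DMSO and uninfected RBC; EC50 from variable-slope log(inhibitor) fit.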

Cc1cc(Cl)c(S(=O)(=O)N2CCCC2)cc1OCC(=O)NC1CCCCC1 [M-833]
Normalised to DMSO (M-833 0.0390625 uM, Pop E-F10 replicate 1): 109.097 | Normalised to DMSO (M-833 0.0390625 uM, Pop E-F10 replicate 3): 103.799 | Normalised to DMSO (M-833 0.078125 uM, Pop E-F10 replicate 1): 108.039 | Normalised to DMSO (M-833 0.078125 uM, Pop E-F10 replicate 3): 104.854 | Normalised to DMSO (M-833 0.15625 uM, Pop E-F10 replicate 1): 116.502 | Normalised to DMSO (M-833 0.15625 uM, Pop E-F10 replicate 3): 108.125 | Normalised to DMSO (M-833 0.3125 uM, Pop E-F10 replicate 1): 113.047 | Normalised to DMSO (M-833 0.3125 uM, Pop E-F10 replicate 3): 113.296 | Normalised to DMSO (M-833 0.625 uM, Pop E-F10 replicate 1): 116.996 | Normalised to DMSO (M-833 0.625 uM, Pop E-F10 replicate 3): 104.749 | Normalised to DMSO (M-833 1.25 uM, Pop E-F10 replicate 1): 105.924 | Normalised to DMSO (M-833 1.25 uM, Pop E-F10 replicate 3): 104.326 | Normalised to DMSO (M-833 2.5 uM, Pop E-F10 replicate 1): 101.551 | Normalised to DMSO (M-833 2.5 uM, Pop E-F10 replicate 3): 105.276 | Normalised to DMSO (M-833 5 uM, Pop E-F10 replicate 1): 94.8519 | Normalised to DMSO (M-833 5 uM, Pop E-F10 replicate 3): 96.4122 | Normalised to DMSO (M-833 10 uM, Pop E-F10 replicate 1): 72.2144 | Normalised to DMSO (M-833 10 uM, Pop E-F10 replicate 3): 80.0563 | pEC50 (Plasmodium falciparum, 72 h, Supplementary Table 1, PopE-F10 (N330K)): < 4.70 | inhibition at 0.0390625 µM (Plasmodium falciparum, M-833 0.0390625 uM, Pop E-F10 replicate 1, read-out: % Inhibition): -9.1% | inhibition at 0.0390625 µM (Plasmodium falciparum, M-833 0.0390625 uM, Pop E-F10 replicate 3, read-out: % Inhibition): -3.8% | inhibition at 0.078125 µM (Plasmodium falciparum, M-833 0.078125 uM, Pop E-F10 replicate 1, read-out: % Inhibition): -8.04% | inhibition at 0.078125 µM (Plasmodium falciparum, M-833 0.078125 uM, Pop E-F10 replicate 3, read-out: % Inhibition): -4.85% | inhibition at 0.15625 µM (Plasmodium falciparum, M-833 0.15625 uM, Pop E-F10 replicate 1, read-out: % Inhibition): -16.5% | inhibition at 0.15625 µM (Plasmodium falciparum, M-833 0.15625 uM, Pop E-F10 replicate 3, read-out: % Inhibition): -8.13% | inhibition at 0.3125 µM (Plasmodium falciparum, M-833 0.3125 uM, Pop E-F10 replicate 1, read-out: % Inhibition): -13% | inhibition at 0.3125 µM (Plasmodium falciparum, M-833 0.3125 uM, Pop E-F10 replicate 3, read-out: % Inhibition): -13.3% | inhibition at 0.625 µM (Plasmodium falciparum, M-833 0.625 uM, Pop E-F10 replicate 1, read-out: % Inhibition): -17% | inhibition at 0.625 µM (Plasmodium falciparum, M-833 0.625 uM, Pop E-F10 replicate 3, read-out: % Inhibition): -4.75% | inhibition at 1.25 µM (Plasmodium falciparum, M-833 1.25 uM, Pop E-F10 replicate 1, read-out: % Inhibition): -5.92% | inhibition at 1.25 µM (Plasmodium falciparum, M-833 1.25 uM, Pop E-F10 replicate 3, read-out: % Inhibition): -4.33% | inhibition at 2.5 µM (Plasmodium falciparum, M-833 2.5 uM, Pop E-F10 replicate 1, read-out: % Inhibition): -1.55% | inhibition at 2.5 µM (Plasmodium falciparum, M-833 2.5 uM, Pop E-F10 replicate 3, read-out: % Inhibition): -5.28% | inhibition at 5 µM (Plasmodium falciparum, M-833 5 uM, Pop E-F10 replicate 1, read-out: % Inhibition): 5.15% | inhibition at 5 µM (Plasmodium falciparum, M-833 5 uM, Pop E-F10 replicate 3, read-out: % Inhibition): 3.59% | inhibition at 10 µM (Plasmodium falciparum, M-833 10 uM, Pop E-F10 replicate 1, read-out: % Inhibition): 27.8% | inhibition at 10 µM (Plasmodium falciparum, M-833 10 uM, Pop E-F10 replicate 3, read-out: % Inhibition): 19.9% | inhibition at 0.0390625 µM (Plasmodium falciparum, Pop E-F10 replicate 1, M-833 0.0390625 uM): -3% | inhibition at 0.078125 µM (Plasmodium falciparum, Pop E-F10 replicate 1, M-833 0.078125 uM): -0.769% | inhibition at 0.15625 µM (Plasmodium falciparum, Pop E-F10 replicate 1, M-833 0.15625 uM): -1.15% | inhibition at 0.3125 µM (Plasmodium falciparum, Pop E-F10 replicate 1, M-833 0.3125 uM): -1.42% | inhibition at 0.625 µM (Plasmodium falciparum, Pop E-F10 replicate 1, M-833 0.625 uM): -0.0475% | inhibition at 1.25 µM (Plasmodium falciparum, Pop E-F10 replicate 1, M-833 1.25 uM): 1.29% | inhibition at 2.5 µM (Plasmodium falciparum, Pop E-F10 replicate 1, M-833 2.5 uM): 3.54% | inhibition at 5 µM (Plasmodium falciparum, Pop E-F10 replicate 1, M-833 5 uM): 13.5% | inhibition at 10 µM (Plasmodium falciparum, Pop E-F10 replicate 1, M-833 10 uM): 32.5% | Normalised to DMSO (Pop E-F10 replicate 1, M-833 0.0390625 uM): 103 | Normalised to DMSO (Pop E-F10 replicate 1, M-833 0.078125 uM): 100.769 | Normalised to DMSO (Pop E-F10 replicate 1, M-833 0.3125 uM): 101.424 | Normalised to DMSO (Pop E-F10 replicate 1, M-833 0.625 uM): 100.047 | Normalised to DMSO (Pop E-F10 replicate 1, M-833 1.25 uM): 98.7091 | Normalised to DMSO (Pop E-F10 replicate 1, M-833 2.5 uM): 96.4594 | Normalised to DMSO (Pop E-F10 replicate 1, M-833 5 uM): 86.4832 | Normalised to DMSO (Pop E-F10 replicate 1, M-833 10 uM): 67.4893 | (av-uRBC) / (DMSO-uRBC) x100 (PopE-F10, 3.04832 nM, biological replicate 1): 111.434 | (av-uRBC) / (DMSO-uRBC) x100 (PopE-F10, 3.04832 nM, biological replicate 2): 114.392 | (av-uRBC) / (DMSO-uRBC) x100 (PopE-F10, 3.04832 nM, biological replicate 3): 116.409 | (av-uRBC) / (DMSO-uRBC) x100 (PopE-F10, 9.14495 nM, biological replicate 1): 115.6 | (av-uRBC) / (DMSO-uRBC) x100 (PopE-F10, 9.14495 nM, biological replicate 2): 114.392 | (av-uRBC) / (DMSO-uRBC) x100 (PopE-F10, 9.14495 nM, biological replicate 3): 132.26 | (av-uRBC) / (DMSO-uRBC) x100 (PopE-F10, 27.4348 nM, biological replicate 1): 114.804 | (av-uRBC) / (DMSO-uRBC) x100 (PopE-F10, 27.4348 nM, biological replicate 2): 115.461 | (av-uRBC) / (DMSO-uRBC) x100 (PopE-F10, 27.4348 nM, biological replicate 3): 121.608 | (av-uRBC) / (DMSO-uRBC) x100 (PopE-F10, 82.3045 nM, biological replicate 1): 112.716 | (av-uRBC) / (DMSO-uRBC) x100 (PopE-F10, 82.3045 nM, biological replicate 2): 116.595 | (av-uRBC) / (DMSO-uRBC) x100 (PopE-F10, 82.3045 nM, biological replicate 3): 121.195 | (av-uRBC) / (DMSO-uRBC) x100 (PopE-F10, 246.914 nM, biological replicate 1): 110.71 | (av-uRBC) / (DMSO-uRBC) x100 (PopE-F10, 246.914 nM, biological replicate 2): 117.042 | (av-uRBC) / (DMSO-uRBC) x100 (PopE-F10, 246.914 nM, biological replicate 3): 120.187 | (av-uRBC) / (DMSO-uRBC) x100 (PopE-F10, 740.741 nM, biological replicate 1): 108.694 | (av-uRBC) / (DMSO-uRBC) x100 (PopE-F10, 740.741 nM, biological replicate 2): 116.419 | (av-uRBC) / (DMSO-uRBC) x100 (PopE-F10, 740.741 nM, biological replicate 3): 115.329 | (av-uRBC) / (DMSO-uRBC) x100 (PopE-F10, 2222.22 nM, biological replicate 1): 107.392 | (av-uRBC) / (DMSO-uRBC) x100 (PopE-F10, 2222.22 nM, biological replicate 2): 111.175 | (av-uRBC) / (DMSO-uRBC) x100 (PopE-F10, 2222.22 nM, biological replicate 3): 110.489 | (av-uRBC) / (DMSO-uRBC) x100 (PopE-F10, 6666.67 nM, biological replicate 1): 97.5292 | (av-uRBC) / (DMSO-uRBC) x100 (PopE-F10, 6666.67 nM, biological replicate 2): 97.5177 | (av-uRBC) / (DMSO-uRBC) x100 (PopE-F10, 6666.67 nM, biological replicate 3): 73.4437 | (av-uRBC) / (DMSO-uRBC) x100 (PopE-F10, 20000 nM, biological replicate 1): 52.2279
